According to patent US20130345254A1, “CYCLOHEXANE SUBSTITUTED AMINO CYCLOPENTANE DERIVATIVES AS USEFUL CCR2 ANTAGONISTS” (priority 2011, published 2013):

Target: T1, human CCR2 (Homo sapiens, UniProt P41597)
T1 construct: expressed in transfected cells; host or cells: Ba/F3 cells (membrane preparation)
Assay: CCR2 membrane binding assay (SPA, 125I-rhMCP-1 competition)
Settings: membranes from Ba/F3 cells transfected with human CCR2; 0.03 nM 125I-rhMCP-1; 4 h room temperature
Protocol: The radio-ligand binding assay was done using scintillation proximity assay (SPA) technology. Briefly, membranes (1 μg per assay point) from Ba/F3 cells transfected with human CCR2, and wheat germ agglutinin-coated SPA beads (80 μg per point; Amersham, Arlington Heights, Ill.), were pre-incubated for 30 min at room temperature in CCR2 buffer (50 mM HEPES (pH=7.4), 10 mM MgCl2, 10 mM NaCl, 1 mM CaCL2, 0.1% BSA, 10 μg/ml Saponin). At this point pre-bound SPA bead, membrane complex was incubated at room temperature for 4 h with varying concentrations of punitive CCR2 antagonists (in 1% DMSO, final) and 0.03 nM ^125I-rhMCP-1 in CCR2 Buffer (S.A. 2200 Ci/mmol, PerkinElmer Life and Analytical Science, Boston, Mass.; NEX332). Binding competition was measured using a 1450 Microbeta Trilux counter (Wallac, Gaithersburg, Md.). Binding constants (IC50 and slope) were calculated using GraphPad Prism software (GraphPad Software, Inc., La Jolla Calif.).

T1 sequence (P41597 whole entry): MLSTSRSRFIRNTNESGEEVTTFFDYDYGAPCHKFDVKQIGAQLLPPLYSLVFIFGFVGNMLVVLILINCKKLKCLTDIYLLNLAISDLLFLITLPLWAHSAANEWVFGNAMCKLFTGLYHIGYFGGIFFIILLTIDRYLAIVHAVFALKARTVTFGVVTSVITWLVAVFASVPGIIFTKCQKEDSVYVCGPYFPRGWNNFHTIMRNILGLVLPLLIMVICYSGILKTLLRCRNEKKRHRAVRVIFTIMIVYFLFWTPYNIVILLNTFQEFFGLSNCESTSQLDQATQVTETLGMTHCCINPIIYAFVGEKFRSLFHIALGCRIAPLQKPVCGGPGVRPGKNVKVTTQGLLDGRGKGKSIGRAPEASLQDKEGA

SMILES	IC50
CC=C1CCC(N[C@@H]2CC[C@H](C(=O)NCc3cc(C(F)(F)F)cc(C(F)(F)F)c3)C2)CC1 (some centres unmarked) [Compound 1]	2100 nM
CC=C1CCC(N[C@@H]2CC[C@@](C(=O)N3CCc4ncc(C(F)(F)F)cc4C3)(C(C)C)C2)CC1 (some centres unmarked) [Compound 2]	9 nM
